Patent US20100298302A1, “NOVEL PROTEIN KINASE MODULATORS” (priority 2009, published 2010)
Read-outs that look alike come from different tables or passages of the source.

Legend:
recombinant PIM-1 = recombinant PIM-1 (Homo sapiens, UniProt P11309); assay: PIM-1 kinase assay; format: biochemical; settings: for inhibition at 0.5 µM: 500 nM compound, read-out: PIM1: % inh 500 nM
Procedure: The following procedure was used to assay the PIM-1 kinase activity of compounds of the invention. Other methods for assaying PIM-1 and other PIM kinases, as well as methods to assay for activity against various kinases known in the art.
In a final reaction volume of 50 ul, recombinant PIM-1 (1 ng) was incubated with 12 mM MOPS pH 7.0, 0.4 mM EDTA, glycerol 1%, brij 35 0.002%, 2-mercaptoethanol 0.02%, BSA 0.2 mg/ml, 100 uM KKRNRTLTK, 10 mM MgAcetate, 15 uM ATP, [γ-^33P-ATP] (specific activity approx. 500 cpm/pmol), DMSO 4% and test inhibitor compound at the required concentration. The reaction was initiated by the addition of the Magnesium ATP mixture. After 40 min incubation at 23° C., the reactions were quenched by the addition of 100 ul 0.75% Phosphoric acid, and the labeled peptide collected by filtration through a phosphocellulose filter plate. The plate was washed 4 times with 0.075% phosphoric acid (100 ul per well) and then, after the addition of scintillation fluid (20 ul per well), the counts were measured by a scintillation counter.

[1] = tested on: K-562 human chronic myelogenous leukemia (CML) cells; assay: Alamar Blue cell proliferation assay, K-562; format: cell-based; settings: K562, Table 4
Procedure: (§1) A representative cell-proliferation assay protocol using Alamar Blue dye (stored at 4° C., use 20 ul per well) is described hereafter.
(§2) a. Split and trypsinize cells.
(§3) b. Count cells using hemocytometer.
(§4) c. Plate 4,000-5,000 cells per well in 100 μl of medium and seed into a 96-well plate according to the following plate layout. Add cell culture medium only to wells B10 to B12. Wells B1 to B9 have cells but no compound added.
(§5) d. Add 100 μl of 2× drug dilution to each well in a concentration shown in the plate layout above. At the same time, add 100 μl of media into the control wells (wells B10 to B12). Total volume is 200 μl/well.
(§6) e. Incubate four (4) days at 37° C., 5% CO2 in a humidified incubator.
(§7) f. Add 20 μl Alamar Blue reagent to each well.
(§8) g. Incubate for four (4) hours at 37° C., 5% CO2 in a humidified incubator.
(§9) h. Record fluorescence at an excitation wavelength of 544 nm and emission wavelength of 590 nm using a microplate reader.
(§10) In the assays, cells are cultured with a test compound for approximately four days, the dye is then added to the cells and fluorescence of […] dye is detected after approximately four hours. Different types of cells can be utilized in the assays (e.g., HCT-116 human colorectal carcinoma cells, PC-3 human prostatic cancer cells, MDA-MB231 human breast cancer cells, K-562 human chronic myelogenous leukemia (CML) cells, MiaPaca human pancreatic carcinoma cells, MV-4 human acute myeloid leukemia cells, and BxPC3 human pancreatic adenocarcinoma cells).

MV-4-11 = assay: Alamar Blue cell proliferation assay, MV-4-11; format: cell-based; settings: Homo sapiens, MV4-11; Table 4
Procedure: as §1, §2, §3, §4, §5, §6, §7, §8, §9, §10

[2] = tested on: MiaPaca human pancreatic carcinoma cells; assay: Alamar Blue cell proliferation assay, MiaPaCa; format: cell-based; settings: MIA PaCa-2
Procedure: as §1, §2, §3, §4, §5, §6, §7, §8, §9, §10

[3] = tested on: PC-3 human prostatic cancer cells; assay: Alamar Blue cell proliferation assay, PC3; format: cell-based
Procedure: as §1, §2, §3, §4, §5, §6, §7, §8, §9, §10

recombinant human CK2 = target: T1, recombinant human CK2 (Homo sapiens, UniProt P68400); assay: cell-free CK2 assay; format: biochemical
T1 construct: purchased Upstate
Procedure: Modulatory activity of compounds described herein was assessed in vitro in cell-free CK2 assays by the following method.
Test compounds in aqueous solution were added at a volume of 10 microliters, to a reaction mixture comprising 10 microliters Assay Dilution Buffer (ADB; 20 mM MOPS, pH 7.2, 25 mM beta-glycerolphosphate, 5 mM EGTA, 1 mM sodium orthovanadate and 1 mM dithiothreitol), 10 microliters of substrate peptide (RRRDDDSDDD, dissolved in ADB at a concentration of 1 mM), 10 microliters of recombinant human CK2 (25 ng dissolved in ADB; Upstate). Reactions were initiated by the addition of 10 microliters of ATP Solution (90% 75 mM MgCl2, 75 micromolar ATP dissolved in ADB; 10% [γ-^33P]ATP (stock 1 mCi/100 μl; 3000 Ci/mmol (Perkin Elmer) and maintained for 10 minutes at 30 degrees C. The reactions were quenched with 100 microliters of 0.75% phosphoric acid, then transferred to and filtered through a phosphocellulose filter plate (Millipore). After washing each well 5 times with 0.75% phosphoric acid, the plate was dried under vacuum for 5 min and, following the addition of 15 ul of scintilation fluid to each well, the residual radioactivity was measured using a Wallac luminescence counter.

recombinant human PIM2 = recombinant human PIM2 (Homo sapiens, UniProt Q9P1W9); assay: PIM-2 kinase assay; format: biochemical
Procedure: Test compounds dissolved and diluted in DMSO (2 μl) were added to a reaction mixture comprising 10 μl of 5× Reaction Buffer (40 mM MOPS pH 7.0, 5 mM EDTA), 10 μl of recombinant human PIM2 solution (4 ng PIM-2 dissolved in dilution buffer (20 mM MOPS pH 7.0; EDTA 1 mM; 5% Glycerol; 0.01% Brij 35; […]; […] 2-mercaptoethanol; 1 mg/ml BSA)) and 8 ul of water. Reactions were initiated by the addition of 10 ul of ATP Solution ([…] (15 mM MgCl2; 75 uM ATP) 1% ([γ-33P]ATP: Stock 1 mCi/100 μl; 3000 Ci/mmol (Perkin Elmer)) and 10 ul of substrate peptide solution (RSRSSYPAGT, dissolved in water at a concentration of 1 mM), Reactions were maintained for 10 min at 30° C. The reactions were quenched with 100 ul of 0.75% Phosphoric acid, then transferred to and filtered through a Phosphocellulose filter plate (Millipore, MSPH-N6B-50). After washing each well 4 times with 0.75% Phosphoric acid, scintillation fluid (20 uL) was added to each well and the residual radioactivity was measured using a Wallac luminescence counter.

[4] = 15 μM ATP, read-out: PIM1: IC50 (15 μM ATP)

Sequence of recombinant PIM-1 (P11309 whole entry): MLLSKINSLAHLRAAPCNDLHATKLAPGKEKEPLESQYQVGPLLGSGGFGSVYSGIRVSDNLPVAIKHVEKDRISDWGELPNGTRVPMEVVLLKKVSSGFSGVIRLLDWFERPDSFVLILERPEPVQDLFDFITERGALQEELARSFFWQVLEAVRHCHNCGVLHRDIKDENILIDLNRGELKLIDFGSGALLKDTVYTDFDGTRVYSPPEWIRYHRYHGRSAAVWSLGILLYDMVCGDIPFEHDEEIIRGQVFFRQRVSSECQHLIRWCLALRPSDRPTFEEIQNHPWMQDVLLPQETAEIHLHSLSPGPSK
T1 sequence (P68400 whole entry): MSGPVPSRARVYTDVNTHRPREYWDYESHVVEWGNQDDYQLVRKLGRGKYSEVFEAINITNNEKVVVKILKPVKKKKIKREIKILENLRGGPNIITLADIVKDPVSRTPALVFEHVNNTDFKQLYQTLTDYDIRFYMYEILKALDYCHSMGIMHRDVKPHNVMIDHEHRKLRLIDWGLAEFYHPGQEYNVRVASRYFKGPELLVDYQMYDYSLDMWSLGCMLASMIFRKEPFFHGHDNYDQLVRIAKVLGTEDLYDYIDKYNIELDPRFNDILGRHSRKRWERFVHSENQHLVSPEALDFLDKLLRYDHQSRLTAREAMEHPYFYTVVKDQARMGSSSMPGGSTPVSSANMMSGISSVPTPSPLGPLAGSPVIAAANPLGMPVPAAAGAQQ
T1 sequence (P67870 whole entry partner): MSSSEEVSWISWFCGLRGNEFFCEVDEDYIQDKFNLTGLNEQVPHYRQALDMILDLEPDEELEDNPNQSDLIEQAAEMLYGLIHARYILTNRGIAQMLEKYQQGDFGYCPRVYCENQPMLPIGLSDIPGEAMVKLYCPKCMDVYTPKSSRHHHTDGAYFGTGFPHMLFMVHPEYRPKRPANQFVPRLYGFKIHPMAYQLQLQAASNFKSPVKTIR
Sequence of recombinant human PIM2 (Q9P1W9 whole entry): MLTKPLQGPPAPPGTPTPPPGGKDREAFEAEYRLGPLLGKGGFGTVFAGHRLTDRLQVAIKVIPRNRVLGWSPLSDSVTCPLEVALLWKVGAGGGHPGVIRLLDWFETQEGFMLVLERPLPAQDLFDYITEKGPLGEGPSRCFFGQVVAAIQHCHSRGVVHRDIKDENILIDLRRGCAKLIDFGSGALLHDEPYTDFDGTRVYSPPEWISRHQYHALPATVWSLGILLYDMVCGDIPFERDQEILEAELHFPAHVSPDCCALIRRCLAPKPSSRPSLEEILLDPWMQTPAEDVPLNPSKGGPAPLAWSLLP

Structure (SMILES)	inhibition at 0.5 µM (recombinant PIM-1) [%]	IC50 (recombinant PIM-1; [4]) [µM]	IC50 [1] [µM]	IC50 (MV-4-11) [µM]	IC50 [2] [µM]	IC50 [3] [µM]	IC50 (recombinant PIM-1; Table 5, read-out: PIM1 IC50) [µM]	IC50 (recombinant human CK2) [µM]	IC50 (recombinant human PIM2) [µM]
O=C(O)c1ccc2c(c1)nc(Nc1cccc(Cl)c1)c1cccn12	95.4	0.095	> 10	2.93	8.92	> 10			
Cc1ccccc1Nc1nc2cc(C(=O)O)ccc2n2cccc12	43.8		> 10	> 10	> 10	> 10			
Fc1cc(F)cc(Nc2nc3cc(-c4nnn[nH]4)ccc3n3cccc23)c1	63.8	0.514	> 10	7.77	> 10	> 10			
CN(c1cccc(Cl)c1)c1nc2cc(-c3nnn[nH]3)ccc2n2cccc12	6.59		> 10	> 10	> 10	> 10			
Clc1cccc(-c2nc3cc(-c4nnn[nH]4)ccc3n3cccc23)c1	25		> 10	> 10	> 10	> 10			
COc1cccc(Nc2nc3cc(C(=O)O)ccc3n3cccc23)c1	79	0.354	> 10	> 10	> 10	> 10			
O=C(O)c1ccc2c(c1)nc(Nc1ccc3ncccc3c1)c1cccn12	43.2	0.239	> 10	> 10	> 10				
CCOC(=O)c1cccc2c1[nH]c(=O)c1cccn12							> 2.5	> 5	> 2.5
NC(=O)c1cccc2c1nc(Nc1ccccc1Cl)c1cccn12							< 0.1	< 1	< 1
O=C(O)c1cccc2c1[nH]c(=O)c1cccn12							> 2.5	< 5	> 2.5
NC(=O)c1cccc2c1[nH]c(=O)c1cccn12							> 2.5	> 5	> 2.5
O=c1[nH]c2c(-c3nnc[nH]3)cccc2n2cccc12							> 2.5	< 5	> 2.5
COc1ccc(Sc2nc3c(-c4nnc[nH]4)cccc3n3cccc23)cc1							< 0.1	< 0.1	< 5
Brc1cccc(Nc2nc3c(-c4nnc[nH]4)cccc3n3cccc23)c1							< 0.1	< 0.1	< 0.1
Fc1ccc(Nc2nc3c(-c4nnc[nH]4)cccc3n3cccc23)c(Cl)c1							< 0.1	< 1	< 0.1
FC(F)(F)CCNc1nc2c(-c3nnc[nH]3)cccc2n2cccc12							< 0.1	< 5	< 1
CN(C)CCNc1nc2c(-c3nnc[nH]3)cccc2n2cccc12							> 2.5	> 5	> 2.5
O=C(O)c1cccc2c1nc(Nc1ccccc1F)c1cccn12							< 1	< 1	< 1
CCOC(=O)c1cccc2c1nc(N(C(=O)OC(C)(C)C)c1ccccc1F)c1cccn12							> 2.5	> 5	> 2.5
CC(C)(C)OC(=O)OCc1cccc2c1nc(N(C(=O)OC(C)(C)C)c1ccccc1F)c1cccn12							> 2.5	> 5	> 2.5
CCOC(=O)c1cccc2c1[nH]c(=O)c1cncn12								< 5	> 2.5
O=C(O)c1cccc2c1nc(Nc1ccccc1F)c1cncn12								< 1	> 2.5
NC(=O)c1cccc2c1nc(Nc1ccccc1F)c1cncn12								< 0.1	< 0.1
CCOC(=O)c1cccc2c1[nH]c(=O)c1nccn12								> 5	> 2.5

More lines, now with the values ahead:

inhibition at 0.5 µM (recombinant PIM-1) [%]	IC50 (recombinant PIM-1; [4]) [µM]	IC50 [1] [µM]	IC50 (MV-4-11) [µM]	IC50 [2] [µM]	IC50 [3] [µM]	IC50 (recombinant PIM-1; Table 5, read-out: PIM1 IC50) [µM]	IC50 (recombinant human CK2) [µM]	IC50 (recombinant human PIM2) [µM]	Structure (SMILES)
92.3	0.115	> 10	> 10	> 10	> 10				N#Cc1cccc(Nc2nc3cc(C(=O)O)ccc3n3cccc23)c1
77.4	0.15	> 10	4.98	9.37	> 10				Clc1cccc(Nc2nc3cc(-c4nnn[nH]4)ccc3n3cccc23)c1
59.3	0.466	> 10	> 10	> 10	> 10				Clc1ccccc1Nc1nc2cc(-c3nnn[nH]3)ccc2n2cccc12
45.2		> 10	6.58	> 10	> 10				FC(F)(F)c1cccc(Nc2nc3cc(-c4nnn[nH]4)ccc3n3cccc23)c1
52.4	0.676	> 10	> 10	> 10	> 10				Cc1ccccc1Nc1nc2cc(-c3nnn[nH]3)ccc2n2cccc12
78.1	0.156	> 10	> 10	> 10	> 10				O=C(O)c1ccc2c(c1)nc(Nc1cccc(F)c1)c1cccn12
49.7		> 10	> 10	> 10	> 10				CN(c1cccc(Cl)c1)c1nc2cc(C(=O)O)ccc2n2cccc12
69.3	0.229	> 10	> 10	> 10					NC(=O)c1cc(F)cc(Nc2nc3cc(C(=O)O)ccc3n3cccc23)c1
						< 5	< 5	< 5	c1cc(-c2nnc[nH]2)c2nc(Nc3nccs3)c3cccn3c2c1
						< 0.1	< 1	< 1	c1cc(-c2nnc[nH]2)c2nc(NC3CC3)c3cccn3c2c1
						< 0.1	< 5	< 1	c1cc(-c2nnc[nH]2)c2nc(NCC3CC3)c3cccn3c2c1
						> 2.5	> 5	> 2.5	CCOC(=O)c1cccc2c1nc(Nc1ccccc1F)c1cccn12
						> 2.5	> 5	< 5	OCc1cccc2c1nc(Nc1ccccc1F)c1cccn12
							< 5	> 2.5	CCOC(=O)c1cccc2c1nc(Nc1ccccc1F)c1cncn12
